From the kinase profiling compilation of Christmann-Franck et al. (2016)

What was measured:
Assay in all cases: radiometric filter-binding kinase assay
MARK2 (human) = MARK2 (human) (UniProt Q7KZI7); conditions: compound 1.0 µM
EPHB3 (human) = EPHB3 (human) (UniProt P54753)
EPHA2 (human) = EPHA2 (human) (UniProt P29317)
TTK (human) = TTK (human) (UniProt P33981)
EPHA4 (human) = EPHA4 (human) (UniProt P54764)
NUAK1 (human) = NUAK1 (human) (UniProt O60285)
EPHB2 (human) = EPHB2 (human) (UniProt P29323)
MYLK (human) = MYLK (human) (UniProt Q15746)
PKN2 (human) = PKN2 (human) (UniProt Q16513)
MINK1 (human) = MINK1 (human) (UniProt Q8N4C8)
CaMK1 (human) = CaMK1 (human) (UniProt Q14012)
AURKB (human) = AURKB (human) (UniProt Q96GD4)
MST4 (human) = MST4 (human) (UniProt Q9P289)
[1] = tested on: PAK2 (human), Q13177 [T402E]
CDK2 CCNA2 (human) = CDK2 CCNA2 (human) (UniProt P20248+P24941)
GCK (human) = GCK (human) (UniProt Q12851)
DYRK3 (human) = DYRK3 (human) (UniProt O43781)
PAK6 (human) = PAK6 (human) (UniProt Q9NQU5)
RPS6KA3 KD1 KD2 (human) = RPS6KA3 KD1 KD2 (human) (UniProt P51812)
LCK (mouse) = conditions: accession and sequence are those of the human protein
CHEK2 (human) = CHEK2 (human) (UniProt O96017)
MAP3K11 (human) = MAP3K11 (human) (UniProt Q16584)
TBK1 (human) = TBK1 (human) (UniProt Q9UHD2)
MAP2K1 (human) = MAP2K1 (human) (UniProt Q02750)
TAOK1 (human) = TAOK1 (human) (UniProt Q7L7X3)
EPHB1 (human) = EPHB1 (human) (UniProt P54762); conditions: compound 1.0 µM
PAK4 (human) = PAK4 (human) (UniProt O96013)
[2] = tested on: AKT1 (human), P31749 [S473D]
MAPK10 (human) = MAPK10 (human) (UniProt P53779)
MAP3K7 TAB1 (human) = MAP3K7 TAB1 (human) (UniProt Q15750+O43318)
CSK (human) = CSK (human) (UniProt P41240)
IKBKB (human) = IKBKB (human) (UniProt O14920)
SRC (human) = SRC (human) (UniProt P12931)
MAPK8 (human) = MAPK8 (human) (UniProt P45983)
ROCK2 (rat) = conditions: accession and sequence are those of the human protein
CHEK1 (human) = CHEK1 (human) (UniProt O14757)

Sequence of AKT1 (human), P31749 [S473D] (P31749 whole entry S473D, looked up): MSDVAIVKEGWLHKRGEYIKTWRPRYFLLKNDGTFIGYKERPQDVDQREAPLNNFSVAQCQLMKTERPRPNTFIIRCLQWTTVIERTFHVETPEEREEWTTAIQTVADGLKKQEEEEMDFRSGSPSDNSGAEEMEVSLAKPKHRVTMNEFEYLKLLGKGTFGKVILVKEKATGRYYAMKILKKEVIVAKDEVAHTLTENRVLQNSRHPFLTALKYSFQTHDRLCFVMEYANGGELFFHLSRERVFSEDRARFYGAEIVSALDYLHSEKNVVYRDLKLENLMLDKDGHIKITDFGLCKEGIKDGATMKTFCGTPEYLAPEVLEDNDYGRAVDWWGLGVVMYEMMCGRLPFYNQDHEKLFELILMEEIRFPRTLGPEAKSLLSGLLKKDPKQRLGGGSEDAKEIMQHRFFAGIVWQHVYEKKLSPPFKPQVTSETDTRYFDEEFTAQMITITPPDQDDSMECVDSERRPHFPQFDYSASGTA
Sequence of TBK1 (human) (Q9UHD2 whole entry, looked up): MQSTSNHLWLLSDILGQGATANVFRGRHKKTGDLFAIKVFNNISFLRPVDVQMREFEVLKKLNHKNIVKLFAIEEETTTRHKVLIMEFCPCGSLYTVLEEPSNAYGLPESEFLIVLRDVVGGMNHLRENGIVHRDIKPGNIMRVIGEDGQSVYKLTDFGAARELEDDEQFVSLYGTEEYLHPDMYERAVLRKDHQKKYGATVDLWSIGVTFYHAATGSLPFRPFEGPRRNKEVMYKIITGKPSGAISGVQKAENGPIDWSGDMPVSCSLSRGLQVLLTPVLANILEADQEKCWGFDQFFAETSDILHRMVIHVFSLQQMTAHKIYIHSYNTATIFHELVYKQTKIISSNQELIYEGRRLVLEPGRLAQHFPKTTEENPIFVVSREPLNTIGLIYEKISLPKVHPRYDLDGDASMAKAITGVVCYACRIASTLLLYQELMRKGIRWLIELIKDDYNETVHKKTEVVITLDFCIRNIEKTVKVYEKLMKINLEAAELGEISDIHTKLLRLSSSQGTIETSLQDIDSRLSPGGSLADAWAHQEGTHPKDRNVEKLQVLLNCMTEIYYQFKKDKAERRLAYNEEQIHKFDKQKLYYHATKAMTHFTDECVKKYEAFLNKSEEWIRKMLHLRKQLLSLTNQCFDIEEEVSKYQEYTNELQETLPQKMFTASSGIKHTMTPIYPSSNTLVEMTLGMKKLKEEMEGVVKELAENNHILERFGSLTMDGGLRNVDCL
Sequence of EPHA2 (human) (P29317 whole entry, looked up): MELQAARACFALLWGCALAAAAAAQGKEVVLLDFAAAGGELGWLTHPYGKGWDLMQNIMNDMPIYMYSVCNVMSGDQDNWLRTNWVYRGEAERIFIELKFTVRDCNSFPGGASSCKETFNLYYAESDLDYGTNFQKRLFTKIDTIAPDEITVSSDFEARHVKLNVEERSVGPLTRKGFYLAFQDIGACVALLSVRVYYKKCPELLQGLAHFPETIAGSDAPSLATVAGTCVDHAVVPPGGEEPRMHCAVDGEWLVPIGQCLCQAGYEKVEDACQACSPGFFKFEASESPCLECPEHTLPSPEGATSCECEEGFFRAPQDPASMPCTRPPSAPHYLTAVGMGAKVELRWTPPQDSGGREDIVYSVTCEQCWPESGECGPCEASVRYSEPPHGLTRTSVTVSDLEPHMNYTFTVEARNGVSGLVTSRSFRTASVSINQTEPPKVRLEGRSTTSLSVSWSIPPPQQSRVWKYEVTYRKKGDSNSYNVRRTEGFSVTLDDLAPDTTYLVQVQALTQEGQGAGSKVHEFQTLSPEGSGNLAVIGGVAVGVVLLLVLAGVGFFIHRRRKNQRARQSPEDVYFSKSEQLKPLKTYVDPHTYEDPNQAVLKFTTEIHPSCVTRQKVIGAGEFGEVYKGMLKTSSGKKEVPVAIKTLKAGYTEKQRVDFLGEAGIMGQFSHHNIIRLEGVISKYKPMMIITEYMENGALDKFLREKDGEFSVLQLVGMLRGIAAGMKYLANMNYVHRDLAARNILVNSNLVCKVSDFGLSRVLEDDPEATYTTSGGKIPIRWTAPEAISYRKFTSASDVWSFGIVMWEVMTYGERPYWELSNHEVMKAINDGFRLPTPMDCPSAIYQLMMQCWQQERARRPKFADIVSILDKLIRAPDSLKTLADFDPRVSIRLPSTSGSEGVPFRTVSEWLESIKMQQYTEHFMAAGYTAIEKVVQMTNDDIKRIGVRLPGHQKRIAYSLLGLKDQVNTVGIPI
Sequence of MAP2K1 (human) (Q02750 whole entry, looked up): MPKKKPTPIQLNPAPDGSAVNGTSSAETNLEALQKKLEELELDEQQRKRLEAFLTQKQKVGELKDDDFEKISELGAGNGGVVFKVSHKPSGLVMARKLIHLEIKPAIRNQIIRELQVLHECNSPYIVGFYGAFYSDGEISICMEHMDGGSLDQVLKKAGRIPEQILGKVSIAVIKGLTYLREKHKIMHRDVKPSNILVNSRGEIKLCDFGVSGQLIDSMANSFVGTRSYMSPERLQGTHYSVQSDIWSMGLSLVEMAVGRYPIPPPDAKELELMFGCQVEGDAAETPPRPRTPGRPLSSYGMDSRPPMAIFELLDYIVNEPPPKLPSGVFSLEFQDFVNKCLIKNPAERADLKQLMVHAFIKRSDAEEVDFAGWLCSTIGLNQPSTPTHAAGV
Sequence of MAP3K11 (human) (Q16584 whole entry, looked up): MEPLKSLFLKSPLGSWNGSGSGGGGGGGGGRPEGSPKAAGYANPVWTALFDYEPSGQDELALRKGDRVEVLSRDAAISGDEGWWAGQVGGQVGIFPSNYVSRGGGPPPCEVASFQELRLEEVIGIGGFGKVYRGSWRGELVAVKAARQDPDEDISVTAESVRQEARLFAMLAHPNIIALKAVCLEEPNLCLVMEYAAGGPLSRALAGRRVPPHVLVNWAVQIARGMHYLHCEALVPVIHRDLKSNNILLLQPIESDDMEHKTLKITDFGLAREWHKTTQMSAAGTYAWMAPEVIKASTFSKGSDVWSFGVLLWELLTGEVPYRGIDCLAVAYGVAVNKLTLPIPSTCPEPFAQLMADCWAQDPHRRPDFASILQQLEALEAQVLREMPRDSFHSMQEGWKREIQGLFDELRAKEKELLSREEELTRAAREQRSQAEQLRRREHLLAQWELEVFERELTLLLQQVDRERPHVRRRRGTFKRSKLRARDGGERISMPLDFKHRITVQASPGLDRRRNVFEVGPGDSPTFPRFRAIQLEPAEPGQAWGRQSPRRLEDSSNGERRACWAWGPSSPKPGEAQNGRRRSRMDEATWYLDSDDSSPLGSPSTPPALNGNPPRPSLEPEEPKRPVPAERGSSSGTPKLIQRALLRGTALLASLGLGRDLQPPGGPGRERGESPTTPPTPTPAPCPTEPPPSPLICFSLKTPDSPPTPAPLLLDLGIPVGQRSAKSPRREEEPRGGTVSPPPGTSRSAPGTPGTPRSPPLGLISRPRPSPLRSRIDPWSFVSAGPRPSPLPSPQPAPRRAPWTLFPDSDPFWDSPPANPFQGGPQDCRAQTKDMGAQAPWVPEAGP
Sequence of RPS6KA3 KD1 KD2 (human) (P51812 whole entry, looked up): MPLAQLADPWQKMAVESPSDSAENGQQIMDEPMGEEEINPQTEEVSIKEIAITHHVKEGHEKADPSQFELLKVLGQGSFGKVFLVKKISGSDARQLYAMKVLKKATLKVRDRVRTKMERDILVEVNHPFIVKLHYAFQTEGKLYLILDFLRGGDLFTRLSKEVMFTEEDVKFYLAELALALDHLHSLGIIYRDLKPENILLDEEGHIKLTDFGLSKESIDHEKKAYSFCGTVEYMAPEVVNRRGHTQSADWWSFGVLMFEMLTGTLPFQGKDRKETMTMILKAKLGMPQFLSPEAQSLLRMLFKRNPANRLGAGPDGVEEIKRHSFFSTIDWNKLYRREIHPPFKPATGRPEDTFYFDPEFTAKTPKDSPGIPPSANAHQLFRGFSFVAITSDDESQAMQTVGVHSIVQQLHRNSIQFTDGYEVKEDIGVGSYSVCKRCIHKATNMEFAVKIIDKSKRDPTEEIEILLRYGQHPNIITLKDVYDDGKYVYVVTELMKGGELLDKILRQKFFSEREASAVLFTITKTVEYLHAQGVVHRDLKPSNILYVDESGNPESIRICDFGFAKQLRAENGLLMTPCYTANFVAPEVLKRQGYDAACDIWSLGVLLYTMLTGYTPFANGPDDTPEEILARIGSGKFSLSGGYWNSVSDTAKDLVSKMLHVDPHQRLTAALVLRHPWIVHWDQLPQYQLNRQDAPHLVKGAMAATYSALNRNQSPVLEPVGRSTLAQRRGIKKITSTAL
Sequence of SRC (human) (P12931 whole entry, looked up): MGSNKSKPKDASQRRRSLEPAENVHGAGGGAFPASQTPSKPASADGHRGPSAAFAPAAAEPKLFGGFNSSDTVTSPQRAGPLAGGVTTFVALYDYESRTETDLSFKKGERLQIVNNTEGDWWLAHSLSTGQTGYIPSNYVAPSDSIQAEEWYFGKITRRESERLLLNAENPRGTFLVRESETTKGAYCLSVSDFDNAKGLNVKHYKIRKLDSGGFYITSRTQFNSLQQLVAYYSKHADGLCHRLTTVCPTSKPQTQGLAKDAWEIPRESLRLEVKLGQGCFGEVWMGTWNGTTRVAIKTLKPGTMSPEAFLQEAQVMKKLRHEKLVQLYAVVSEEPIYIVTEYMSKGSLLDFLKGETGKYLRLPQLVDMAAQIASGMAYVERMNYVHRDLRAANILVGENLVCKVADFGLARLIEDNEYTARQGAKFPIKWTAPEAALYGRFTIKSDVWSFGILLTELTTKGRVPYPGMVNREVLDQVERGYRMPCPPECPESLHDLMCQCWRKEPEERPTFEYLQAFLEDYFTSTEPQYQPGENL
Sequence of AURKB (human) (Q96GD4 whole entry, looked up): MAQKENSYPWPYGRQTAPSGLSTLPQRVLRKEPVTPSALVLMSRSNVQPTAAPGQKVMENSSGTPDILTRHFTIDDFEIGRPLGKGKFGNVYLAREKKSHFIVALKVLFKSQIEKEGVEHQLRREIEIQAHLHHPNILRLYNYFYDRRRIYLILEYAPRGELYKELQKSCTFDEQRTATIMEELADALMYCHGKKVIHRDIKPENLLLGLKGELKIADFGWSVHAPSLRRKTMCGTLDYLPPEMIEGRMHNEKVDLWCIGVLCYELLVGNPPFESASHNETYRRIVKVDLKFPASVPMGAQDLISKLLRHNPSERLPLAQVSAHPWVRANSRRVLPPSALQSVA

residual activity (MARK2 (human)): 97% | residual activity (EPHB3 (human); compound 1.0 µM): 115% | residual activity (EPHB3 (human); compound 10.0 µM): 109% | residual activity (EPHA2 (human); compound 1.0 µM): 87% | residual activity (EPHA2 (human); compound 10.0 µM): 52% | residual activity (TTK (human); compound 1.0 µM): 100% | residual activity (TTK (human); compound 10.0 µM): 80% | residual activity (EPHA4 (human); compound 1.0 µM): 114% | residual activity (EPHA4 (human); compound 10.0 µM): 53% | residual activity (NUAK1 (human); compound 1.0 µM): 75% | residual activity (NUAK1 (human); compound 10.0 µM): 30% | residual activity (EPHB2 (human); compound 1.0 µM): 104% | residual activity (EPHB2 (human); compound 10.0 µM): 62% | residual activity (MYLK (human); compound 1.0 µM): 96% | residual activity (MYLK (human); compound 10.0 µM): 49% | residual activity (PKN2 (human); compound 1.0 µM): 106% | residual activity (PKN2 (human); compound 10.0 µM): 97% | residual activity (MINK1 (human); compound 1.0 µM): 80% | residual activity (MINK1 (human); compound 10.0 µM): 37% | residual activity (CaMK1 (human); compound 1.0 µM): 98% | residual activity (CaMK1 (human); compound 10.0 µM): 70% | residual activity (AURKB (human); compound 1.0 µM): 79% | residual activity (AURKB (human); compound 10.0 µM): 62% | residual activity (MST4 (human); compound 1.0 µM): 100% | residual activity (MST4 (human); compound 10.0 µM): 57% | residual activity ([1]; compound 1.0 µM): 92% | residual activity ([1]; compound 10.0 µM): 96% | residual activity (CDK2 CCNA2 (human); compound 1.0 µM): 89% | residual activity (CDK2 CCNA2 (human); compound 10.0 µM): 48% | residual activity (GCK (human); compound 1.0 µM): 69% | residual activity (GCK (human); compound 10.0 µM): 17% | residual activity (DYRK3 (human); compound 1.0 µM): 111% | residual activity (DYRK3 (human); compound 10.0 µM): 109% | residual activity (PAK6 (human); compound 1.0 µM): 83% | residual activity (PAK6 (human); compound 10.0 µM): 80% | residual activity (RPS6KA3 KD1 KD2 (human); compound 1.0 µM): 107% | residual activity (RPS6KA3 KD1 KD2 (human); compound 10.0 µM): 89% | residual activity (LCK (mouse); compound 1.0 µM): 98% | residual activity (LCK (mouse); compound 10.0 µM): 77% | residual activity (CHEK2 (human); compound 1.0 µM): 74% | residual activity (CHEK2 (human); compound 10.0 µM): 35% | residual activity (MAP3K11 (human); compound 1.0 µM): 89% | residual activity (MAP3K11 (human); compound 10.0 µM): 37% | residual activity (TBK1 (human); compound 1.0 µM): 99% | residual activity (TBK1 (human); compound 10.0 µM): 107% | residual activity (MAP2K1 (human); compound 1.0 µM): 92% | residual activity (MAP2K1 (human); compound 10.0 µM): 88% | residual activity (TAOK1 (human); compound 1.0 µM): 87% | residual activity (TAOK1 (human); compound 10.0 µM): 69% | residual activity (EPHB1 (human)): 117% | residual activity (PAK4 (human); compound 1.0 µM): 93% | residual activity (PAK4 (human); compound 10.0 µM): 46% | residual activity ([2]; compound 1.0 µM): 115% | residual activity ([2]; compound 10.0 µM): 102% | residual activity (MAPK10 (human); compound 1.0 µM): 94% | residual activity (MAPK10 (human); compound 10.0 µM): 84% | residual activity (MAP3K7 TAB1 (human); compound 1.0 µM): 92% | residual activity (MAP3K7 TAB1 (human); compound 10.0 µM): 53% | residual activity (CSK (human); compound 1.0 µM): 96% | residual activity (CSK (human); compound 10.0 µM): 88% | residual activity (IKBKB (human); compound 1.0 µM): 100% | residual activity (IKBKB (human); compound 10.0 µM): 93% | residual activity (SRC (human); compound 1.0 µM): 102% | residual activity (SRC (human); compound 10.0 µM): 87% | residual activity (MAPK8 (human); compound 1.0 µM): 97% | residual activity (MAPK8 (human); compound 10.0 µM): 102% | residual activity (ROCK2 (rat); compound 1.0 µM): 95% | residual activity (ROCK2 (rat); compound 10.0 µM): 91% | residual activity (CHEK1 (human); compound 1.0 µM): 95% | residual activity (CHEK1 (human); compound 10.0 µM): 84%
SMILES: NC(=O)c1c(NC(=O)C2CC2)sc2c1CCCC2
